Test results: patent US20150031693A1, “PAK INHIBITORS FOR THE TREATMENT OF FRAGILE X SYNDROME” (AFRAXIS HOLDINGS, INC., priority 2011, published 2015)

Columns and labels:
PAK4 [1] = biological target: T1, PAK4 (Homo sapiens, UniProt O96013); test: Additional in vitro PAK inhibition assay, PAK4; type: biochemical; details: 10 μM ATP
Description: (§1) Additional In Vitro PAK Inhibition Assay
(§2) Similar in vitro PAK1 and PAK4 inhibition assay was conducted in compounds for the treatment of Fragile X syndrome, but under ATP concentrations of 10 uM and 1 mM.

PAK1 [2] = biological target: T2, PAK1 (Homo sapiens, UniProt Q13153); test: Additional in vitro PAK inhibition assay, PAK1; type: biochemical
Description: as §1, §2

p-MEK1(S298) = test: In vitro cellular HTRF assay for p-MEK1(S298); type: cell-based; details: cell line RT4-D6P2T, read-out: pMEK1(S298)
Excerpt: (§3) In Vitro p-PAK1(S144) and p-MEK1(S298) Cellular Assay
(§4) The cell line is RT4-D6P2T.

p-PAK1(S144) = test: In vitro cellular HTRF assay for p-PAK1(S144); type: cell-based; details: cell line RT4-D6P2T, read-out: pPAK1(S144)
Excerpt: as §3, §4

PAK4 [3] = biological target: T1, PAK4; test: In vitro PAK inhibition assay (Z'-LYTE), PAK4; type: biochemical
Description: (§5) In Vitro PAK Inhibition Assay
(§6) Compounds are screened in 1% DMSO (final) in the well. For 10 point titrations, 3-fold serial dilutions are conducted. All Peptide/Kinase Mixtures are diluted to a 2× working concentration in the appropriate Kinase Buffer
(§7) The 2× PAK4/Ser/Thr 20 mixture is prepared in 50 mM HEPES pH 7.5, 0.01% BRIJ-35, 10 mM MgCl2, 1 mM EGTA. The final 10 μL Kinase Reaction consists of 0.1-0.75 ng PAK4 and 2 μM Ser/Thr 20 in 50 mM HEPES pH 7.5, 0.01% BRIJ-35, 10 mM MgCl2, 1 mM EGTA. After the 1 hour Kinase Reaction incubation, 5 μL of a 1:256 dilution of Development Reagent A is added.
(§8) Bar-coded Corning, low volume NBS, black 384-well plate (Corning Cat. #3676) • 1. Add the following solutions to a well in a 384-well plate: 2.5 μL of 4× Test Compound OR (100 nL 100× Test Compound plus 2.4 μL kinase buffer) • 5 μL of 2× Peptide/Kinase (PAK) Mixture • 2.5 μL of 4× ATP Solution • 2. Shake the plate for 30-seconds • 3. Incubate the PAK Kinase Reaction at room temperature for 60-minutes • 4. Add 5 μL of Development Reagent Solution to each well • 5. Shake the plate for 30-seconds • 6. Incubate the Development Reaction for 60-minutes • 7. Determine the fluorescence using a fluorescence plate reader • 8. Analyze the fluorescence data
(§9) SelectScreen® Kinase Profiling Service uses XLfit from IDBS. The dose response curve is curve fit to model number 205 (sigmoidal dose-response model).
(§10) The table below provides specifications and data around each kinase. The representative IC50 value with a known inhibitor for each kinase was determined at the ATP bin nearest to the ATP Km app.

PAK1 [4] = biological target: T2, PAK1; test: In vitro PAK inhibition assay (Z'-LYTE), PAK1; type: biochemical
Description: as §5, §6
as §7, with “PAK1/Ser/Thr 19” for “PAK4/Ser/Thr 20”, “2.71-30.8” for “0.1-0.75”, “PAK1” for “PAK4”, “19” for “20”, “1:128” for “1:256”
as §8, §9, §10

PAK3 = PAK3 (Homo sapiens, UniProt O75914); test: In vitro PAK inhibition assay (Z'-LYTE), PAK3; type: biochemical
Description: as §5, §6
as §7, with “PAK3/Ser/Thr” for “PAK4/Ser/Thr”, “2.25-22” for “0.1-0.75”, “PAK3” for “PAK4”
as §8, §9, §10

PAK2 (PAK65) = PAK2 (PAK65) (Homo sapiens, UniProt Q13177); test: In vitro PAK inhibition assay (Z'-LYTE), PAK2; type: biochemical
Description: as §5, §6
as §7, with “PAK2 (PAK65)/Ser/Thr” for “PAK4/Ser/Thr”, “0.29-6” for “0.1-0.75”, “PAK2 (PAK65)” for “PAK4”
as §8, §9, §10

Chain of PAK3 (O75914 whole entry): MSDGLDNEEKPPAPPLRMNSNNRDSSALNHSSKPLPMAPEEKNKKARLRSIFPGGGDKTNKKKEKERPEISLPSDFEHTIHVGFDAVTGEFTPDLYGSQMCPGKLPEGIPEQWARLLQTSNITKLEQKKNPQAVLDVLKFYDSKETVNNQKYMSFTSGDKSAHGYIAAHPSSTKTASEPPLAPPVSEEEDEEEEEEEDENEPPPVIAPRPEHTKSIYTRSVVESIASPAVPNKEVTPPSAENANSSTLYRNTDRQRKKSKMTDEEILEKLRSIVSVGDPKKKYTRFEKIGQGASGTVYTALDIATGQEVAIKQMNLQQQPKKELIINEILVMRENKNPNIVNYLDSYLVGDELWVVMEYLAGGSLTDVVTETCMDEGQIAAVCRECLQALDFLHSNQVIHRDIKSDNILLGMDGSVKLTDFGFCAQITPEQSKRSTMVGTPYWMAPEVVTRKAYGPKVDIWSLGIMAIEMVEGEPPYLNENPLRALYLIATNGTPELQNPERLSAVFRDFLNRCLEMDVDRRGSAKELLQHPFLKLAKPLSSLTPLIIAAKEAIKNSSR
T1 sequence (O96013 whole entry): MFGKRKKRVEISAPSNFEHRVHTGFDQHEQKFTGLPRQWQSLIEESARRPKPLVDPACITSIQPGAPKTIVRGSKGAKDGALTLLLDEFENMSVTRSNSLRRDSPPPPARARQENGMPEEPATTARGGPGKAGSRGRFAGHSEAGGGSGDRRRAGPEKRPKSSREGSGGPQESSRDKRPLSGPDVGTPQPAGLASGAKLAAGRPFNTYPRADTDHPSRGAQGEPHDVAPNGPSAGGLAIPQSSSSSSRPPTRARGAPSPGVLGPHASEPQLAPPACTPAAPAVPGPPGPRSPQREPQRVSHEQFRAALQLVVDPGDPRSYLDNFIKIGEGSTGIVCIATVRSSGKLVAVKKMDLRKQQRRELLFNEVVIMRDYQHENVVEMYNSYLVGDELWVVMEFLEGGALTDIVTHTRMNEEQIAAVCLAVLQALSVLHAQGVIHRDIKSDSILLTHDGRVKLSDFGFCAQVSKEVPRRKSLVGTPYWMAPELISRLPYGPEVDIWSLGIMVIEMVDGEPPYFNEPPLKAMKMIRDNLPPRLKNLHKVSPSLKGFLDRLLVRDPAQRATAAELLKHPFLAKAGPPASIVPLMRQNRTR
Chain of PAK2 (PAK65) (Q13177 whole entry): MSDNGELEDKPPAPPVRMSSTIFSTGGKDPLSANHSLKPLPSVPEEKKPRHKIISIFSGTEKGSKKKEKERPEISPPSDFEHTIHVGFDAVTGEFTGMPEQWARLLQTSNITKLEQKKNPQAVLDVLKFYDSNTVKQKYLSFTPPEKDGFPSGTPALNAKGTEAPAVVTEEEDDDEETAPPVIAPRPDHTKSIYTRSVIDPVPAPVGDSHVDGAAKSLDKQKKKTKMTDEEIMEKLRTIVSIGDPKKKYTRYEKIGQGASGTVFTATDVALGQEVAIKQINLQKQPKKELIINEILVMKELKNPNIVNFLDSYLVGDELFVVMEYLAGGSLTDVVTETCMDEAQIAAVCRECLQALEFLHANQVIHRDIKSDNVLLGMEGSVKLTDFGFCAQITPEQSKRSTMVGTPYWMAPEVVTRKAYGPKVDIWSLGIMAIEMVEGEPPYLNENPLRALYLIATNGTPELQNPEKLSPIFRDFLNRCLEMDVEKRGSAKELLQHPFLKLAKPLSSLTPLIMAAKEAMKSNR
T2 sequence (Q13153 whole entry): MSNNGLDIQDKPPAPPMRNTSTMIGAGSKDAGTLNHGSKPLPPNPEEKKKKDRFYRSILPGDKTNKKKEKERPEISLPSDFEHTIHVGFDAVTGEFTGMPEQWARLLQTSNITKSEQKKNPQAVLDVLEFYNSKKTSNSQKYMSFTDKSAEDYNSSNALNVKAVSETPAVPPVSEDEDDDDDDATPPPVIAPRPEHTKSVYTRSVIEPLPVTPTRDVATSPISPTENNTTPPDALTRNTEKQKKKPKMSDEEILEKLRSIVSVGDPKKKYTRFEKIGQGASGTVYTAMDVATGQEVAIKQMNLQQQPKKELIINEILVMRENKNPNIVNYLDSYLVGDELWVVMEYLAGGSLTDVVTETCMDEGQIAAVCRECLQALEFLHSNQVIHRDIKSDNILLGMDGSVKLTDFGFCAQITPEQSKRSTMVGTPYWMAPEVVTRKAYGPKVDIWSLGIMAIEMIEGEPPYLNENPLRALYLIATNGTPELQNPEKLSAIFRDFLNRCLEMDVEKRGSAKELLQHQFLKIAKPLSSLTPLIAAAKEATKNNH

Compound | IC50 (PAK4 [1]) | IC50 (PAK1 [2]; 10 μM ATP, read-out: PAK1 IC50 (10 μM ATP)) | IC50 (PAK1 [2]; 1 mM ATP, read-out: PAK1 IC50 (1 mM ATP)) | IC50 (p-MEK1(S298)) | IC50 (p-PAK1(S144)) | IC50 (PAK4 [3]) | IC50 (PAK1 [4]) | IC50 (PAK3) | IC50 (PAK2 (PAK65))
CCn1c(=O)c(-c2ccc(-c3noc(C)n3)cc2Cl)cc2cnc(N[C@@H]3COC[C@@H]3N3CCN(C)CC3)nc21 | > 5000 nM | 50 to 500 nM | > 5000 nM |  |  |  |  |  | 
CCn1c(=O)c(-c2ccc(-c3cncc(C)n3)cc2Cl)cc2cnc(N[C@H]3CC[C@H](CN(C)C)CC3)nc21 |  |  |  | 500 to 5000 nM | 500 to 5000 nM |  |  |  | 
CCn1c(=O)c(-c2ccc(-c3cncc(C)n3)cc2Cl)cc2cnc(NCCO)nc21 [Example 7] |  |  |  |  |  | > 5000 nM | 50 to 500 nM | 50 to 500 nM | 50 to 500 nM
CCn1c(=O)c(-c2ccc(-c3nccnc3C)cc2Cl)cc2cnc(NCCOC)nc21 [Example 8] |  |  |  |  |  | > 5000 nM | 50 to 500 nM | 500 to 5000 nM | 50 to 500 nM
CCn1c(=O)c(-c2ccc(-c3nccnc3C)cc2Cl)cc2cnc(NCCCOC)nc21 [Example 9] |  |  |  |  |  | > 5000 nM | 50 to 500 nM | 500 to 5000 nM | 50 to 500 nM
CCn1c(=O)c(-c2ccc(-c3cncc(C)n3)cc2Cl)cc2cnc(NCCCOC)nc21 [Example 10] |  |  |  |  |  | > 5000 nM | 50 to 500 nM | 50 to 500 nM | 50 to 500 nM
CCn1c(=O)c(-c2ccc(-c3cncc(C)n3)cc2Cl)cc2cnc(NCCOC)nc21 [Example 11] |  |  |  |  |  | > 5000 nM | 50 to 500 nM | 500 to 5000 nM | 50 to 500 nM

The remaining lines, values ahead:

IC50 (PAK4 [1]) | IC50 (PAK1 [2]; 10 μM ATP, read-out: PAK1 IC50 (10 μM ATP)) | IC50 (PAK1 [2]; 1 mM ATP, read-out: PAK1 IC50 (1 mM ATP)) | IC50 (p-MEK1(S298)) | IC50 (p-PAK1(S144)) | IC50 (PAK4 [3]) | IC50 (PAK1 [4]) | IC50 (PAK3) | IC50 (PAK2 (PAK65)) | Compound
 |  |  |  |  | > 5000 nM | 50 to 500 nM | 50 to 500 nM | 50 to 500 nM | CCn1c(=O)c(-c2ccc(-c3cncc(C)n3)cc2Cl)cc2cnc(NCCCO)nc21 [Example 1, 6-(2-chloro-4-(6-methylpyrazin-2-yl)phenyl)-8-ethyl-2-((3-hydroxypropyl)amino)pyrido[2,3-d]pyrimidin-7(8H)-one]
 |  |  |  |  | > 5000 nM | 50 to 500 nM | 50 to 500 nM | 50 to 500 nM | Cc1cncc(-c2ccc(-c3cc4cnc(NC(CCO)CCO)nc4n(Cc4ccccc4C(F)(F)F)c3=O)c(Cl)c2)n1 [Example 2]
 |  |  |  |  | > 5000 nM | 50 to 500 nM | 50 to 500 nM | 50 to 500 nM | CCn1c(=O)c(-c2ccc(-c3nccnc3C)cc2Cl)cc2cnc(NCCCO)nc21 [Example 3]
 |  |  |  |  | > 5000 nM | 500 to 5000 nM | 500 to 5000 nM | 50 to 500 nM | CCn1c(=O)c(-c2ccc(-c3cncc(C)n3)cc2Cl)cc2cnc(NC(CCO)CCO)nc21 [Example 4]
 |  |  |  |  | > 5000 nM | 500 to 5000 nM | 500 to 5000 nM | 500 to 5000 nM | CCn1c(=O)c(-c2ccc(-c3nccnc3C)cc2Cl)cc2cnc(NC(CCO)CCO)nc21 [Example 5]
 |  |  |  |  | > 5000 nM | 50 to 500 nM | 50 to 500 nM | 50 to 500 nM | CCn1c(=O)c(-c2ccc(-c3nccnc3C)cc2Cl)cc2cnc(NCCO)nc21 [Example 6]
